# Data as given in ChEMBL document CHEMBL5500403, “Discovery of a Double-Stapled Short Peptide as a Long-Acting HIV-1 Inactivator with Potential for Oral Bioavailability” (J Med Chem, 2024).
# Activity calls are given as the source filed them. The rule behind the calls is not given here. Bridge positions count the residues as written; N and C are the ends. Square brackets hold non-standard residues; d marks the D form. Peptide text beside a SMILES is read from it. S5 = C=CCCC[C@](C)(N)C(=O)O
# Legend:
# [1] = Toxicity in Sprague-Dawley rat assessed as neural damage by measuring NeuN positive cell at 50 mg/kg,iv administration measured after 14 days; type: organism-based; settings: in vivo, 336 h, time 14 day
# [2] = Plasma protein binding in rat by LC-MS/MS analysis; type: ADME, cell-free; settings: read-out: PPB (converted)
# [3] = Stability in Sprague-Dawley rat liver microsomes in presence of NADPH by LC-MS/MS analysis; type: ADME, Microsome
# [4] = test system: Human immunodeficiency virus 1; assay: Antiviral activity against HIV-1 IIIB infected in human MT2 cells assessed as inhibition of viral growth at 5 uM preincubation of compound with 20% HSA; type: functional, organism-based
# [5] = Toxicity in Sprague-Dawley rat assessed as histopathological change in kidney at 50 mg/kg,iv administration measured after 14 days by hematoxylin and eosin staining based assay; type: organism-based; settings: in vivo, 336 h, time 14 day
# [6] = Biodistribution in Sprague-Dawley rat testis assessed as fold increase in AUC at 1 mg/kg,iv administration measured after 12 days by LC-MS/MS analysis; type: ADME, organism-based; settings: in vivo, 288 h, time 12 day
# [7] = Toxicity in Sprague-Dawley rat assessed as change in serum ALT level at 50 mg/kg,iv administration measured upto 6 days; type: organism-based; settings: in vivo, 144 h, time < 6 day
# [8] = Toxicity in BALB/c mouse assessed as histopathological change in kidney at 100 mg/kg,iv administration measured after 14 days by hematoxylin and eosin staining based assay; type: organism-based; settings: in vivo, 336 h, time 14 day
# [9] = Stability in rat liver assessed as parent compound remaining at 1 ug/ml incubated for 1 hr by LC-MS/MS analysis; type: ADME, tissue-based; settings: at 1 µg/mL, read-out: Stability
# [10] = Toxicity in male BALB/c mouse assessed as change in body weight at 100 mg/kg,iv administration measured upto 14 days; type: organism-based; settings: in vivo, 336 h, time < 14 day
# [11] = Half life in Sprague-Dawley rat plasma at 50 mg/kg,po administrated for 15 hrs by LC-MS/MS analysis; type: ADME, organism-based
# [12] = Total clearance in Sprague-Dawley rat at 1 mg/kg,iv administration measured upto 9 days by LC-MS/MS analysis; type: ADME, organism-based; settings: in vivo, time < 9 day
# [13] = Drug concentration in Sprague-Dawley rat plasma assessed as fold increase in drug uptake at 10 mg/kg,iv administrated upto 8 days by LC-MS/MS analysis; type: ADME, organism-based; settings: in vivo, 192 h, time < 8 day
# [14] = Toxicity in BALB/c mouse assessed as change in serum ALT level at 100 mg/kg,iv administration measured upto 6 days; type: organism-based; settings: in vivo, 144 h, time < 6 day
# SARS-CoV-2 = assay: Antiviral activity against SARS-CoV-2 infected in human Caco-2 cells assessed as inhibition of viral growth at 2000 nM; type: functional, organism-based; settings: Severe acute respiratory syndrome coronavirus 2
# [15] = Toxicity in female BALB/c mouse assessed as change in body weight at 20 mg/kg,iv administration measured upto 14 days; type: organism-based; settings: in vivo, 336 h, time < 14 day
# [16] = Elimination half life in Sprague-Dawley rat at 1 mg/kg,iv administration measured upto 9 days by LC-MS/MS analysis; type: ADME, organism-based; settings: in vivo, time < 9 day, read-out: beta t1/2 (converted)
# [17] = Toxicity in Sprague-Dawley rat assessed as inflammatory cell infiltration in liver at 50 mg/kg,iv administration measured after 14 days by hematoxylin and eosin staining based assay; type: organism-based; settings: in vivo, 336 h, time 14 day
# [18] = Biodistribution in Sprague-Dawley rat spleen assessed as fold increase in AUC at 1 mg/kg,iv administration measured after 12 days by LC-MS/MS analysis; type: ADME, organism-based; settings: in vivo, 288 h, time 12 day
# [19] = Cytotoxicity against human MT2 cells; type: toxicity, cell-based
# [20] = Toxicity in Sprague-Dawley rat assessed as cell degeneration in kidney at 50 mg/kg,iv administration measured after 14 days by hematoxylin and eosin staining based assay; type: organism-based; settings: in vivo, 336 h, time 14 day
# [21] = Selectivity index, ratio of CC50 for cytotoxicity against human MT2 cells to IC50 for antiviral activity against HIV-1 IIIB infected in human MT2 cells; type: toxicity, cell-based; settings: read-out: Ratio CC50/IC50
# [22] = Biodistribution in Sprague-Dawley rat intestine assessed as fold increase in AUC at 1 mg/kg,iv administration measured after 12 days by LC-MS/MS analysis; type: ADME, organism-based; settings: in vivo, 288 h, time 12 day
# [23] = test system: Human immunodeficiency virus 1; assay: Binding affinity to cytoplasmic LLP1 domain of HIV-1 GP41 assessed as change in enthalpy by isothermal titration calorimetry
# [24] = test system: Human immunodeficiency virus 1; assay: Antiviral activity against T20-resistant HIV-1 NL4-3 harboring […] V38E and N42S mutant assessed as reduction in viral growth by measuring p24 antigen level incubated for 2 hrs by ELISA; type: functional, organism-based
# [25] = Drug concentration in Sprague-Dawley rat plasma at 50 mg/kg,po administrated for 5 days by LC-MS/MS analysis; type: ADME, organism-based; settings: in vivo, 120 h, time 5 day
# [26] = Toxicity in Sprague-Dawley rat assessed as inflammatory cell infiltration in kidney at 50 mg/kg,iv administration measured after 14 days by hematoxylin and eosin staining based assay; type: organism-based; settings: in vivo, 336 h, time 14 day
# [27] = test system: Human immunodeficiency virus 1; assay: Antiviral activity against HIV-1 IIIB assessed as reduction in viral growth by measuring p24 antigen level incubated for 2 hrs by ELISA; type: functional, organism-based; settings: Human immunodeficiency virus 1, IIIB
# [28] = AUClast in Sprague-Dawley rat at 10 mg/kg,iv administration measured upto 9 days by LC-MS/MS analysis; type: ADME, organism-based; settings: in vivo, time < 9 day
# [29] = Total clearance in Sprague-Dawley rat at 10 mg/kg,iv administration measured upto 9 days by LC-MS/MS analysis; type: ADME, organism-based; settings: in vivo, 216 h, time < 9 day
# [30] = test system: Human immunodeficiency virus 1; assay: Antiviral activity against HIV-1 IIIB infected in human MT2 cells assessed as inhibition of viral growth pretreated with virus for 30 mins followed by infection with cells incubated for 72 hrs by ELISA; type: functional, organism-based; settings: Human immunodeficiency virus 1, IIIB
# [31] = Toxicity in BALB/c mouse assessed as change in serum ALT level at 20 mg/kg,iv administration measured upto 6 days; type: organism-based; settings: in vivo, 144 h, time < 6 day
# [32] = MRT in Sprague-Dawley rat at 1 mg/kg,iv administration measured upto 9 days by LC-MS/MS analysis; type: ADME, organism-based; settings: in vivo, time < 9 day
# [33] = MRT in Sprague-Dawley rat at 10 mg/kg,iv administration measured upto 9 days by LC-MS/MS analysis; type: ADME, organism-based; settings: in vivo, 216 h, time < 9 day
# [34] = test system: Human immunodeficiency virus 1; assay: Binding affinity to cytoplasmic LLP1 domain of HIV-1 GP41 assessed as change in entropy by isothermal titration calorimetry
# [35] = test system: Human immunodeficiency virus 1; assay: Antiviral activity against T20-resistant HIV-1 NL4-3 harboring […] V38E and N42S mutant infected in human MT2 cells assessed as inhibition of viral growth pretreated with virus for 30 mins followed by infection with cells incubated for 72 hrs by ELISA; type: functional, organism-based
# [36] = Biodistribution in Sprague-Dawley rat brain assessed as fold increase in AUC at 1 mg/kg,iv administration measured after 12 days by LC-MS/MS analysis; type: ADME, organism-based; settings: in vivo, 288 h, time 12 day
# [37] = test system: Human immunodeficiency virus 1; assay: Antiviral activity against T20-resistant HIV-1 NL4-3 harboring […] N42T and N43K mutant assessed as reduction in viral growth by measuring p24 antigen level incubated for 2 hrs by ELISA; type: functional, organism-based
# [38] = AUClast in Sprague-Dawley rat at 1 mg/kg,iv administration measured upto 9 days by LC-MS/MS analysis; type: ADME, organism-based; settings: in vivo, time < 9 day
compound,measurement,setting,value
"CC(=O)NCC(=O)N[C@@]1(C)CCC/C=C\CCC[C@@](C)(C(=O)N[C@@H](Cc2ccc(O)cc2)C(=O)N[C@@H](CC(C)C)C(=O)N[C@@]2(C)CCC/C=C\CCC[C@@](C)(C(=O)N[C@@H](Cc3ccc(O)cc3)C(=O)N[C@@H](Cc3c[nH]c4ccccc34)C(N)=O)NC(=O)[C@H](CC(C)C)NC(=O)[C@H](CC(C)C)NC(=O)[C@H](CC(N)=O)NC2=O)NC(=O)[C@H](CC(C)C)NC(=O)[C@H](C)NC(=O)[C@H](CCC(=O)O)NC1=O (Ac-G[S5]EAL[S5]YL[S5]NLL[S5]YW-NH2; staple (Z) 2-6, 9-13)",Activity,[1],Non-Toxic
same,fraction unbound,[2],0.153
same,Stability,[3],Stable
same,Activity,[4],Active
same,Activity,[5],Non-Toxic
same,fold change (FC),[6],15
same,Activity,[7],Non-Toxic
same,Activity,[8],Non-Toxic
same,"remaining at 1 h, 1 ug/ml",[9],100%
same,Activity,[10],Non-Toxic
same,half-life,[11],41.2 h
same,clearance,[12],0.31 mL/min/kg
same,fold change (FC),[13],8.3
same,Activity,[14],Non-Toxic
same,Activity,SARS-CoV-2,inactive
same,Activity,[15],Non-Toxic
same,half-life,[16],> 70 h
same,Activity,[17],Non-Toxic
same,fold change (FC),[18],10
same,CC50,[19],5070 nM
same,Activity,[20],Non-Toxic
same,selectivity ratio,[21],216
same,fold change (FC),[22],10
same,deltaH,[23],-2.84 10^4cal/mol
same,EC50,[24],50.6 nM
same,Drug uptake,[25],Active
same,Activity,[26],Non-Toxic
same,EC50,[27],8.21 nM
same,AUC(0-t) at 216 h,[28],334 µg·h/mL
same,CL,[29],0.2 mL/min/kg
same,IC50,[30],23.5 nM
same,Activity,[31],Non-Toxic
same,MRT,[32],71.1 h
same,MRT,[33],89.1 h
same,deltaS,[34],-70.2 cal/mol/deg
same,IC50,[35],32.6 nM
same,fold change (FC),[36],5
same,EC50,[37],114 nM
same,AUC(0-t) at 216 h,[38],40.4 µg·h/mL
